The target in one experiment is T1, OXA-48 (Klebsiella pneumoniae, UniProt Q6XEC0).
T1 construct: made in house; host or cells: E. coli
Briefly: β-lactamase inhibitory activity, determination of IC50 (nitrocefin hydrolysis). It is filed as biochemical. The conditions noted are these: class (D); nitrocefin 200 μM, 30 min pre-incubation; read-out: IC50 β-lactamase OXA-48.

Another experiment concerns the target T2, TEM-1 (Escherichia coli, UniProt P62593).
T2 construct: made in house; host or cells: E. coli
The experiment is described as above. The experiment is classed as biochemical.

Another experiment has as its target T3, OXA-11 (Pseudomonas aeruginosa, UniProt Q06778).
T3 construct: made in house; host or cells: E. coli
Described as above. It is filed as biochemical.

The target in the next experiment is T4, SHV-1 (Klebsiella pneumoniae, UniProt P0AD64).
T4 construct: made in house; host or cells: E. coli
The description is as above. It is filed as biochemical.

The target in the next experiment is T5, KPC-2 (Klebsiella pneumoniae, UniProt Q9F663).
T5 construct: made in house; host or cells: E. coli
Described as above. The settings on record: class (A); nitrocefin 200 μM, 30 min pre-incubation; read-out: IC50 β-lactamase KPC-2. It is filed as biochemical.

A further experiment concerns the target T6, CTX-M-15 (Escherichia coli, UniProt Q9EXV5).
T6 construct: made in house; host or cells: E. coli
The experiment is described as above. It is filed as biochemical. The conditions noted are these: class (A); nitrocefin 200 μM, 30 min pre-incubation; read-out: IC50 β-lactamase CTX-M-15.

Experiment [1] relates to E. coli 131119 (TEM-1, OXA-48). The experiment is described as follows: MIC of compounds alone, broth microdilution. It is filed as cell-based. The settings on record: Escherichia coli; strain 131119 (E. coli); read-out: MIC compounds of the invention alone. The gist of the method:
(§1)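 Broth microdilution per CLSI M7-A7: compounds alone, in DMSO, challenged with log-phase bacteria at 5×10^5 cfu/mL in cation-adjusted Mueller-Hinton broth. Plates incubated 16-20 h at 35° C in ambient air; MIC is the lowest concentration preventing visible growth.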
For orientation: In broth dilution the organism is exposed to a series of concentrations in liquid medium.

Experiment [2] relates to K. pneumoniae 6299 (TEM-1, SHV-11, OXA-163). Briefly: MIC of compounds alone, broth microdilution. It is filed as cell-based. The settings on record: Klebsiella pneumoniae; strain 6299 (K. pneumoniae); read-out: MIC compounds of the invention alone. The method in brief: as §1
For experiment [3], the system named is K. pneumoniae BAA-1898 (TEM-1, SHV-11, SHV-12, KPC-2). The experiment is described as follows: MIC of compounds alone, broth microdilution. The conditions noted are these: Klebsiella pneumoniae, BAA1898; strain BAA-1898 (K. pneumoniae); read-out: MIC compounds of the invention alone. The experiment is classed as cell-based. The method in brief:
as §1

The subject of a further experiment is E. coli RGN238 (OXA-1). The experiment is described as follows: MIC of compounds alone, broth microdilution. The experiment is classed as cell-based. The conditions noted are these: Escherichia coli; strain RGN238 (E. coli); read-out: MIC compounds of the invention alone. The gist of the method: as §1
Experiment [4] relates to E. coli 190317 (TEM-1, SHV-12, CTX-M-15, OXA-1). Briefly: MIC of compounds alone, broth microdilution. It is filed as cell-based. The settings on record: Escherichia coli, read-out: MIC compounds of the invention alone. The gist of the method:
as §1

The test system of experiment [5] is P. aeruginosa CIP107051 (TEM-24). The experiment is described as follows: MIC of compounds alone, broth microdilution. The experiment is classed as cell-based. The settings on record: Pseudomonas aeruginosa; strain CIP107051 (P. aeruginosa); read-out: MIC compounds of the invention alone. The method in brief:
as §1

The next experiment has as its system E. cloacae P99 (AmpC). The experiment is described as follows: MIC of compounds alone, broth microdilution. It is filed as cell-based. The settings on record: Enterobacter cloacae; strain P99 (E. cloacae); read-out: MIC compounds of the invention alone. The gist of the method: as §1
The target of a further experiment is AmpC P. aeruginosa (Pseudomonas aeruginosa, UniProt P24735). The experiment is described as follows: β-lactamase inhibitory activity, determination of IC50 (nitrocefin hydrolysis).
A further experiment deals with T7, OXA-1 (Escherichia coli, UniProt P13661).
T7 construct: made in house; host or cells: E. coli
The description is as above. The experiment is classed as biochemical. The conditions noted are these: class (D); nitrocefin 200 μM, 30 min pre-incubation; read-out: IC50 β-lactamase OXA-1.

The target in a further experiment is AmpC (P99) (Enterobacter cloacae, UniProt P05364). The description is as above.
Another experiment deals with T8, OXA-15 (Pseudomonas aeruginosa, UniProt Q51574).
T8 construct: made in house; host or cells: E. coli
Briefly: biochemical.

Experiment [6] relates to K. pneumoniae UFR39 (CTX-M-15, NDM-1). The experiment is described as follows: MIC of compounds alone, broth microdilution. The experiment is classed as cell-based. The conditions noted are these: Klebsiella pneumoniae; strain UFR39 (K. pneumoniae); read-out: MIC compounds of the invention alone. The gist of the method: as §1

Counter-ions that a name gives are not always drawn.

T3 sequence (Q06778 21-266): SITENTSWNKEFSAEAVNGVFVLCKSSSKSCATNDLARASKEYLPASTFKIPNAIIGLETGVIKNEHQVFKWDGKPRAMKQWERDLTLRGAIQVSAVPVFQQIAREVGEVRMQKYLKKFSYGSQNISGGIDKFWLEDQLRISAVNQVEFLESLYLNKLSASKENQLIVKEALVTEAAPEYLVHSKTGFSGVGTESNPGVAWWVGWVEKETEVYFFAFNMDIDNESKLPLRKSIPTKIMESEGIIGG
T5 sequence (Q9F663 25-293 limits assumed): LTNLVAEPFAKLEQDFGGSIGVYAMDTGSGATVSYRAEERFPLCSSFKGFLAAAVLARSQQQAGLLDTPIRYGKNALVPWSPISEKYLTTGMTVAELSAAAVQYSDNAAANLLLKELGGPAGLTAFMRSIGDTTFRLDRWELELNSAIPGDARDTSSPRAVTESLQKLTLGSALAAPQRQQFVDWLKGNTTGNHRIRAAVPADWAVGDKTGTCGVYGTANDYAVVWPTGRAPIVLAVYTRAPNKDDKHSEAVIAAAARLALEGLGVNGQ
T8 sequence (Q51574 22-275): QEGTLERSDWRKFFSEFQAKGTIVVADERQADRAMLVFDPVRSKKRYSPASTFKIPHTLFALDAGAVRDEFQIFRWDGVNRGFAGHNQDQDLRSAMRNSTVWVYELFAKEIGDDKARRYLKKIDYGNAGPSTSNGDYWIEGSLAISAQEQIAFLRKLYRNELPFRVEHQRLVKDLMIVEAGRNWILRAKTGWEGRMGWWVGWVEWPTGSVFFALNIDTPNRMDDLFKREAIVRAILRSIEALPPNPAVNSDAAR
T1 sequence (Q6XEC0 23-265 limits assumed): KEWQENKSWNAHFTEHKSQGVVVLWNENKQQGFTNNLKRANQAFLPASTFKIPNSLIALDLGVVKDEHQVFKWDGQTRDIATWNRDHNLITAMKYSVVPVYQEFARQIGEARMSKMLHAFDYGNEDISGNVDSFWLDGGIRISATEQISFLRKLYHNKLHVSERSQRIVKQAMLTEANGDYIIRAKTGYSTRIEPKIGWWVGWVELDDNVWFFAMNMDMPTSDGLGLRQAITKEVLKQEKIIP
T6 sequence (Q9EXV5 entry or part of it): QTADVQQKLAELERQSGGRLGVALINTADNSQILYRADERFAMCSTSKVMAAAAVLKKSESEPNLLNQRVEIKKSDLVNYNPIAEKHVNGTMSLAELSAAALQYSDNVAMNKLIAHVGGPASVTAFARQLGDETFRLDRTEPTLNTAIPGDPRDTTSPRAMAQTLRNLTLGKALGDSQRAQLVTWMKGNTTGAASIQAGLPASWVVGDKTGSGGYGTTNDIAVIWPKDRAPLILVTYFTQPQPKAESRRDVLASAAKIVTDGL
T4 sequence (P0AD64 22-286): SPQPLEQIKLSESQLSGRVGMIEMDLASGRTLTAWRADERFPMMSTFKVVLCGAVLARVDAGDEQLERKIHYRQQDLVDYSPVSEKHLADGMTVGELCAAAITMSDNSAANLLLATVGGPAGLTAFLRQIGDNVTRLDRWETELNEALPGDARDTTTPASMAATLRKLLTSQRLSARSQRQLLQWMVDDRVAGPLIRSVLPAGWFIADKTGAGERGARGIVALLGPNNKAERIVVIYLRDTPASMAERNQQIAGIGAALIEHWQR
T2 sequence (P62593 24-286 limits assumed): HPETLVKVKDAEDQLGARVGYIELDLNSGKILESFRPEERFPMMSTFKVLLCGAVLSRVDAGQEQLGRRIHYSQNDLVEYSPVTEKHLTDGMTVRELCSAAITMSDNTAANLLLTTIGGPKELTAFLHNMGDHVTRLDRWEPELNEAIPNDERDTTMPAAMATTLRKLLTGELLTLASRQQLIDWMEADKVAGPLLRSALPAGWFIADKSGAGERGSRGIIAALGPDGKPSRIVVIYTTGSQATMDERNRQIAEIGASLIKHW
AmpC (P99), sequence (P05364 21-381): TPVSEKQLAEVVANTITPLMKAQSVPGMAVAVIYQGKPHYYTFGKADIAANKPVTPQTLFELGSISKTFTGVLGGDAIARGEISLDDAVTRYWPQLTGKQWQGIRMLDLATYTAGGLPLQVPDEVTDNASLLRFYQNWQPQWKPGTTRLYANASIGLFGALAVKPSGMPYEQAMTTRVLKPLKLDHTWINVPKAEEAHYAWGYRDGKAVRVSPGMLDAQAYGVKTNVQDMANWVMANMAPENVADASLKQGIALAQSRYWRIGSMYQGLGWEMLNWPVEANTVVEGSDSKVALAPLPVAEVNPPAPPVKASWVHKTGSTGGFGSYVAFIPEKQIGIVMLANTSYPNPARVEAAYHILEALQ
AmpC P. aeruginosa, sequence (P24735 27-397): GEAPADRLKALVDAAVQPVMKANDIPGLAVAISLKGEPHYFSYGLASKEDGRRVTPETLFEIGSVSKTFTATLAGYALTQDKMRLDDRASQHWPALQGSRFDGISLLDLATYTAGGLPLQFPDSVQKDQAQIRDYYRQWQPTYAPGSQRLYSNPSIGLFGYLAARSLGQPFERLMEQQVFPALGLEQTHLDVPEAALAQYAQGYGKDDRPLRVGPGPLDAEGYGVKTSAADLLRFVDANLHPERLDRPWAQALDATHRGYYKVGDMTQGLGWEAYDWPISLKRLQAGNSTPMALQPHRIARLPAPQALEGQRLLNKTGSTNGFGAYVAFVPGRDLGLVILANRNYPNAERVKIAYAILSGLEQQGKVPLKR
T7 sequence (P13661 26-276): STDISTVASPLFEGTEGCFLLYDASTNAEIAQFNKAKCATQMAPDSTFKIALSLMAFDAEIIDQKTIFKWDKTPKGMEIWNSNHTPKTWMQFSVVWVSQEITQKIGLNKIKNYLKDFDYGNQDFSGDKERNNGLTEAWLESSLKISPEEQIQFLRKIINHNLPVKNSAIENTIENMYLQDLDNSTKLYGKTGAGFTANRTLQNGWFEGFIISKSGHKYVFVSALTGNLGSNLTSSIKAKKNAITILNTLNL

Turning to `O=C1N2CC=C(c3cscn3)C(C2)N1OS(=O)(=O)[O-].[Na+]` (centres unmarked) [Example 31, sodium [4-(thiazol-4-yl)-7-oxo-1,6-diazabicyclo[3.2.1]oct-3-en-6-yl] sulfate], the IC50 at OXA-48 came out at 2.3 nM; on TEM-1, 4.9 nM; against OXA-11, 990 nM; at SHV-1, 11 nM; at KPC-2, 360 nM; at CTX-M-15, 5.5 nM. In addition, the IC50 on AmpC P. aeruginosa stood at 1500 nM; at OXA-1, 1100 nM; against AmpC (P99) it was 940 nM; against OXA-15, 97 nM. In addition, the MIC was 16 µg/mL in [1]; > 32 µg/mL in experiment [2]; > 32 µg/mL in experiment [3]; > 32 µg/mL with E. coli RGN238 (OXA-1); 16 µg/mL in experiment [4]; > 32 µg/mL in experiment [5]. Further, the MIC with E. cloacae P99 (AmpC) is 16 µg/mL.

`NCc1ncc(C2=CCN3CC2N(OS(=O)(=O)O)C3=O)s1` (centres unmarked) [Example 32, [4-[2-(aminomethyl)thiazol-5-yl]-7-oxo-1,6-diazabicyclo[3.2.1]oct-3-en-6-yl] hydrogen sulfate]: the IC50 on OXA-48 is 8.9 nM; against TEM-1, 7.5 nM; against OXA-11, 3500 nM; against SHV-1, 33 nM; on KPC-2, 300 nM; on CTX-M-15, 14 nM. Besides, the IC50 against AmpC P. aeruginosa was determined as 3200 nM; on OXA-1, 670 nM; against AmpC (P99) it was 4400 nM; against OXA-15 it was 170 nM. In addition, the minimal inhibitory concentration (MIC) was > 32 µg/mL in experiment [1]; > 32 µg/mL in [2]; > 32 µg/mL in experiment [3]; > 32 µg/mL in the experiment with E. coli RGN238 (OXA-1); 8 µg/mL in experiment [4]; > 32 µg/mL in [5]. The MIC with E. cloacae P99 (AmpC) was 16 µg/mL.

On to `COc1ncc(C2=CC3CN(C2)C(=O)N3OS(=O)(=O)[O-])s1.[Na+]` (centres unmarked) [Example 39, Sodium [3-(2-methoxythiazol-5-yl)-7-oxo-1,6-diazabicyclo[3.2.1]oct-3-en-6-yl] sulfate], for which the IC50 on OXA-48 was 0.99 nM; against TEM-1 it was 1.4 nM; at OXA-11, 140 nM; at SHV-1, 3.2 nM; on KPC-2, 11 nM; on CTX-M-15 it was 0.62 nM. Moreover, the IC50 was found to be 240 nM against AmpC P. aeruginosa, 220 nM at OXA-1, 46 nM against AmpC (P99) and 79 nM at OXA-15. The MIC (in experiment [6]; in experiment [2]; in [3]; in experiment [4]; in [5]; in the experiment on E. cloacae P99 (AmpC)) was > 32 µg/mL throughout.

On to `O=C1N2CC(c3nc4cccnc4s3)=CC(C2)N1OS(=O)(=O)[O-].[Na+]` (centres unmarked) [Example 40, Sodium (7-oxo-3-thiazolo[5,4-b]pyridin-2-yl-1,6-diazabicyclo[3.2.1]oct-3-en-6-yl) sulfate], for which the half-inhibitory concentration (IC50) on OXA-48 is 2.7 nM; against TEM-1 it was 0.35 nM; on OXA-11, 61 nM; on SHV-1, 1.1 nM; at KPC-2, 2.2 nM; at CTX-M-15 it was 1.2 nM. For the same compound, the IC50 at AmpC P. aeruginosa was 230 nM; at OXA-1, 120 nM; on AmpC (P99) it was 10 nM; at OXA-15, 77 nM. The MIC (in experiment [6]; in [2]; in [3]; in [4]; in [5]; in the experiment on E. cloacae P99 (AmpC)) was > 32 µg/mL each time.

`O=C1N2CC(c3ccccn3)=CC(C2)N1OS(=O)(=O)[O-].[Na+]` (centres unmarked) [Example 42, Sodium [7-oxo-3-(2-pyridyl)-1,6-diazabicyclo[3.2.1]oct-3-en-6-yl]sulfate]: the IC50 on OXA-48 turned out to be 31 nM; against TEM-1, 2.4 nM; on OXA-11 it was 120 nM; at SHV-1, 2.9 nM; at KPC-2, 8 nM; at CTX-M-15, 0.89 nM. The IC50 was 75 nM at AmpC P. aeruginosa, 640 nM on OXA-1, 25 nM against AmpC (P99) and 370 nM against OXA-15. The MIC was 32 µg/mL in experiment [6]; > 32 µg/mL in experiment [2]; 32 µg/mL in experiment [3]; 16 µg/mL in experiment [4]; > 32 µg/mL in experiment [5]; > 32 µg/mL in the experiment on E. cloacae P99 (AmpC).

As to `O=C1N2CC(c3cn[nH]c3)=CC(C2)N1OS(=O)(=O)[O-].[Na+]` (centres unmarked) [Example 43, Sodium [7-oxo-3-(1H-pyrazol-4-yl)-1,6-diazabicyclo[3.2.1]oct-3-en-6-yl] sulfate], the IC50 at OXA-48 was found to be 9.4 nM; against TEM-1, 0.77 nM; on OXA-11, 370 nM; at SHV-1, 1.7 nM; on KPC-2, 30 nM; at CTX-M-15, 2.9 nM. Besides, the IC50 at AmpC P. aeruginosa stood at 440 nM; at OXA-1 it was 1200 nM; at AmpC (P99) it was 180 nM; on OXA-15 it was 540 nM. Further, the MIC (in experiment [6]; in experiment [2]; in experiment [3]; in experiment [4]; in experiment [5]; with E. cloacae P99 (AmpC)) was > 32 µg/mL in each case.

What is called IC50 is the point on the concentration scale where inhibition reaches its midpoint. What is called MIC is the lowest concentration found to suppress growth.

(Values after patent publication US10183943B2, “Heterocyclic compounds and their use in preventing or treating bacterial infections” (MUTABILIS, priority 2015, dated 2019).)
